Data on nine compounds can be found in ChEMBL document CHEMBL1201862, “PubChem BioAssay data set” (2004).

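Five compound concentrations were applied to cells in 96-well plates for 48 hours; endpoints were derived by simple linear interpolation of the resulting dose-response curve. Abbreviation: GI50, concentration required for 50% inhibition of growth.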 Calls of active or inactive are those of the source. Rule as the data show it: active = GI50 up to about 1.1 µM and inactive = higher.

Among the test systems are RPMI-8226; CCRF-CEM; A498; CAKI-1; UO-31; HCT-15; NCI-H226; U-251; COLO 205; SK-MEL-5; PC-3; MDA-MB-435; NCI/ADR-RES; HCT-116; OVCAR-3; K562; Malme-3M; NCI-H522; HCC 2998; RXF 393.
What all share (assay): growth of human tumour cells (NCI), 48 h

Take `ClCCN1CCOC1=C1C=CC=C1`: the GI50 in the test on RPMI-8226 is > 100 µM (inactive); with CCRF-CEM, 80.4 µM (inactive); with A498 it was > 100 µM (inactive); in the test with CAKI-1, > 100 µM (inactive); with UO-31 it was > 100 µM (inactive); with HCT-15, greater than 100 µM. The GI50 in the test on NCI-H226, in the test on U-251, in the test with COLO 205, in the test on SK-MEL-5, in the test on PC-3 and in the test on MDA-MB-435 was > 100 µM (inactive) each time. Also, the GI50 in the test with NCI/ADR-RES, with HCT-116 and with OVCAR-3 was > 100 µM (inactive) throughout.

As for `N[C@H]1CCc2c1nc1c(c2-c2ccccc2)CC[C@@H]1N`, the GI50 with RPMI-8226 was 34.4 µM (inactive); with CCRF-CEM it was 17.6 µM (inactive); in the test with CAKI-1, 14.8 µM (inactive); in the test on HCT-15, 34.4 µM; in the test with NCI-H226, 33.6 µM (inactive); in the test with K562, 12.3 µM (inactive). Moreover, the GI50 is 20.5 µM (inactive) in the test with U-251; 20.6 µM (inactive) in the test with COLO 205; 15.9 µM (inactive) with SK-MEL-5; 16.7 µM (inactive) in the test on Malme-3M; 15.3 µM (inactive) with PC-3; 16.2 µM (inactive) in the test with NCI-H522. Besides, the GI50 in the test on MDA-MB-435 is 15.8 µM (inactive); in the test with NCI/ADR-RES it was 46.9 µM (inactive); in the test with HCC 2998, 21.4 µM (inactive); with HCT-116, 18.1 µM (inactive).

`CCC(/C=C/c1ccccc1)=N\Nc1ccc(Cl)c(Cl)c1`: the GI50 is 19.1 µM (inactive) with RPMI-8226; 62.4 µM (inactive) in the test with CCRF-CEM; 34.9 µM (inactive) in the test with CAKI-1; 26.7 µM (inactive) with RXF 393; 21.4 µM (inactive) in the test with UO-31; 29.7 µM in the test on HCT-15. Moreover, the GI50 in the test on NCI-H226 was 21.5 µM (inactive); in the test on K562 it was 32.9 µM (inactive); in the test on U-251 it was 3.22 µM (inactive); in the test on COLO 205, 24.9 µM (inactive); in the test on SK-MEL-5, 13.8 µM (inactive); with Malme-3M, 32.1 µM (inactive). Also, the GI50 in the test with PC-3 was 55.6 µM (inactive); with NCI-H522, 18.5 µM (inactive); in the test on MDA-MB-435, 33.3 µM (inactive); in the test with NCI/ADR-RES it was 31.9 µM (inactive); in the test on HCC 2998, 25.9 µM (inactive); in the test on HCT-116 it was 23.7 µM (inactive). Moreover, in the test with OVCAR-3, the GI50 was 25.7 µM (inactive).

Turning to `CCOC(=O)c1cc(-c2ccc(OC)cc2)c([N+](=O)[O-])[nH]1`, the GI50 was > 10 µM (inactive) in the test on CCRF-CEM; > 10 µM (inactive) with A498; > 10 µM (inactive) in the test with CAKI-1; > 10 µM (inactive) with RXF 393; > 10 µM (inactive) in the test on UO-31; greater than 10 µM with HCT-15. In addition, the GI50 with NCI-H226 was > 9.08 µM (inactive); with K562 it was 1.95 µM (inactive); with U-251, > 10 µM (inactive); with COLO 205, > 10 µM (inactive); in the test on SK-MEL-5, 7.67 µM (inactive); in the test with Malme-3M, > 10 µM (inactive). In addition, the GI50 is > 10 µM (inactive) in the test on PC-3; 9.82 µM (inactive) in the test with NCI-H522; > 5.01 µM (inactive) in the test on MDA-MB-435; > 10 µM (inactive) in the test with HCC 2998; > 10 µM (inactive) in the test with HCT-116; > 10 µM (inactive) in the test with OVCAR-3.

On to `O=C1CN(c2cccc(C(F)(F)F)c2)C(=O)CN1CCN1CC(=O)N(c2cccc(C(F)(F)F)c2)CC1=O`, for which the GI50 with RPMI-8226 is > 100 µM (inactive); with CCRF-CEM, > 100 µM (inactive); in the test on UO-31, > 100 µM (inactive); in the test on HCT-15, greater than 100 µM; in the test with K562 it was > 100 µM (inactive); in the test with U-251 it was > 100 µM (inactive). Moreover, the GI50 with COLO 205, in the test with SK-MEL-5, with PC-3, in the test on NCI-H522, in the test on MDA-MB-435 and with NCI/ADR-RES was > 100 µM (inactive) each time. Also, the GI50 in the test with HCC 2998 and in the test on HCT-116 was > 100 µM (inactive) in each case.

Take `O=c1[nH]ncc2[nH]c3c4ccccc4ccc3c12`: the GI50 with RPMI-8226 is 38.5 µM (inactive); in the test with CCRF-CEM, 46.3 µM (inactive); in the test with CAKI-1, 48.2 µM (inactive); with RXF 393, 46.2 µM (inactive); in the test on UO-31, 25.5 µM (inactive); in the test with HCT-15, 12.4 µM. Besides, the GI50 was 45.7 µM (inactive) with K562; 24.8 µM (inactive) with U-251; 24.2 µM (inactive) with COLO 205; 28.1 µM (inactive) in the test with SK-MEL-5; 19.6 µM (inactive) with Malme-3M; 39.2 µM (inactive) in the test on PC-3. The GI50 is 19 µM (inactive) with NCI-H522; 18 µM (inactive) in the test on MDA-MB-435; > 100 µM (inactive) with NCI/ADR-RES; 60.1 µM (inactive) with HCC 2998; 42.2 µM (inactive) with HCT-116; 29.6 µM (inactive) with OVCAR-3.

On to `COC(=O)c1nc(Cl)nc(Cl)c1Cl`, for which the GI50 in the test with RPMI-8226 is 1.29 µM (inactive); in the test on CCRF-CEM, 6.49 µM (inactive); in the test with CAKI-1, 18.2 µM (inactive); in the test with RXF 393 it was 14.4 µM (inactive); in the test with UO-31 it was 19.2 µM (inactive); with HCT-15 it was 21.9 µM. For the same compound, the GI50 in the test with NCI-H226 is 27 µM (inactive); in the test on K562 it was 12.2 µM (inactive); in the test with U-251, 26.1 µM (inactive); in the test on COLO 205, 18.6 µM (inactive); in the test on SK-MEL-5, 18.3 µM (inactive); in the test on Malme-3M, 20.8 µM (inactive). Also, the GI50 with PC-3 was 14.4 µM (inactive); in the test on NCI-H522, 19.3 µM (inactive); with MDA-MB-435, 15.8 µM (inactive); with NCI/ADR-RES it was 33.8 µM (inactive); in the test on HCC 2998, 22 µM (inactive); with HCT-116, 18.2 µM (inactive). Also, in the test on OVCAR-3, the GI50 was 2.02 µM (inactive).

In the case of `CC(=O)O[C@H]1C(=O)[C@@]2(C)C(C(OC(=O)c3ccccc3)[C@]3(O)CC(OC(=O)C(O)C(NC(=O)c4ccccc4)c4cccc(Cl)c4)C(C)=C1C3(C)C)[C@]1(OC(C)=O)CO[C@@H]1C[C@@H]2O` (stereo partly drawn), the GI50 in the test on RPMI-8226 is 2.21 µM (inactive); with CCRF-CEM it was 2.62 µM (inactive); with CAKI-1 it was > 10 µM (inactive); in the test on HCT-15, greater than 10 µM; in the test on NCI-H226, > 10 µM (inactive); with K562 it was 4.94 µM (inactive). For the same compound, the GI50 is 4.95 µM (inactive) with U-251; 3.1 µM (inactive) in the test on COLO 205; 5.94 µM (inactive) in the test with SK-MEL-5; > 10 µM (inactive) in the test with Malme-3M; 7.11 µM (inactive) in the test on PC-3; 3.18 µM (inactive) in the test with NCI-H522. For the same compound, the GI50 in the test on MDA-MB-435 was 1.55 µM (inactive); in the test with NCI/ADR-RES it was > 10 µM (inactive); with HCC 2998 it was 4.67 µM (inactive); in the test on HCT-116, 2.88 µM (inactive); in the test with OVCAR-3, 4.18 µM (inactive).

Regarding `O=C(Oc1cccc(Cl)c1)c1cc2cc(CCl)ccc2oc1=O`, the GI50 with RPMI-8226 is 61.7 µM (inactive); in the test on CAKI-1 it was 60.7 µM (inactive); in the test on RXF 393 it was 20.7 µM (inactive); in the test with UO-31, 32.8 µM (inactive); in the test with HCT-15, 88.3 µM; in the test with NCI-H226, 37.8 µM (inactive). Also, the GI50 in the test with K562 was 41.4 µM (inactive); with COLO 205, 20.7 µM (inactive); with SK-MEL-5, 16.9 µM (inactive); in the test on Malme-3M, 14 µM (inactive); in the test on PC-3, 26.1 µM (inactive); with NCI-H522, 15.3 µM (inactive). For the same compound, the GI50 was 30.4 µM (inactive) in the test with MDA-MB-435; > 100 µM (inactive) with NCI/ADR-RES; 16 µM (inactive) in the test on HCC 2998; 61.5 µM (inactive) in the test with HCT-116; 39.8 µM (inactive) in the test with OVCAR-3.
